# Reference: patent publication US9290467B2, “Cyclic amides” (Hoffmann-La Roche Inc., priority 2012, dated 2016)
# Biological target: Cathepsin L (Homo sapiens (Human), UniProt P07711)
# Assay: Cathepsin enzyme inhibition assay (fluorogenic peptide substrate Z-Val-Val-Arg-AMC)
# Assay type: biochemical
# Details: enzyme 1 nM, substrate 20 μM, pH 6.5
# Method: Enzyme activity is measured by observing the increase in fluorescence intensity caused by cleavage of a peptide substrate containing a fluorophore whose emission is quenched in the intact peptide.
# Assay buffer: 100 mM potassium phosphate pH 6.5, EDTA-Na 5 mM, Triton X-100 0.001%, DDT 5 mM.
# Enzymes (all at 1 nM): human and mouse Cathepsin S, Cat K, Cat B, Cat L
# Substrate (20 μM): Z-Val-Val-Arg-AMC, except for Cat K which uses Z-Leu-Arg-AMC (both from Bachem).
# AMC=7-Amino-4-Methyl-Coumarin.
# Excitation 360 nm, Emission 465 nm.
# Enzyme is added to the substance dilutions in 96-well microtitre plates and the reaction is started with substrate. […] IC50 are calculated by standard methods. The results are expressed in μM in the following table.
# Sequence of Cathepsin L (P07711 114-333): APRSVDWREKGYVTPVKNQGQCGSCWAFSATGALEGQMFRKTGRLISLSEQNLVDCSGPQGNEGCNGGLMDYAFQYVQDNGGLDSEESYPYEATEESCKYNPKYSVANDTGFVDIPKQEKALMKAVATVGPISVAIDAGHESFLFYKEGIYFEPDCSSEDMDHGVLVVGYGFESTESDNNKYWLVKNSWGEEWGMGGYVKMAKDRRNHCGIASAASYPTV
row,Compound,IC50 [nM]
1,"N#CC1(NC(=O)[C@@H]2Cc3ccc(c(Cl)c3)OC/C=C/CCN3CCCC3C(=O)N2)CC1 (mixture of isomers) [Example 12, (E)-(S)-18-Chloro-5-oxo-16-oxa-4,10-diaza-tricyclo[15.2.2.0*6,10*]henicosa-1(20),13,17(21),18-tetraene-3-carboxylic acid (1-cyano-cyclopropyl)-amide]",878
2,"N#CC1(NC(=O)[C@@H]2Cc3ccc(c(Cl)c3)OC/C=C/CCN3C[C@@H](F)CC3C(=O)N2)CC1 (mixture of isomers) [Example 13, (E)-(3S,8S)-18-Chloro-8-fluoro-5-oxo-16-oxa-4,10-diaza-tricyclo[15.2.2.0*6,10*]henicosa-1(20),13,17(21),18-tetraene-3-carboxylic acid (1-cyano-cyclopropyl)-amide]",948
3,"N#CC1(NC(=O)[C@@H]2Cc3ccc(c(Cl)c3)OC/C=C/CCN3CC(F)(F)CC3C(=O)N2)CC1 (mixture of isomers) [Example 14, (E)-(S)-18-Chloro-8,8-difluoro-5-oxo-16-oxa-4,10-diaza-tricyclo[15.2.2.0*6,10*]henicosa-1(20),13,17(21),18-tetraene-3-carboxylic acid (1-cyano-cyclopropyl)-amide]",6060
4,"CC1(C)CC2C(=O)N[C@H](C(=O)NC3(C#N)CC3)Cc3ccc(c(Cl)c3)OC/C=C/CCN2C1 (mixture of isomers) [Example 15, (E)-(S)-18-Chloro-8,8-dimethyl-5-oxo-16-oxa-4,10-diaza-tricyclo[15.2.2.0*6,10*]henicosa-1(20),13,17(21),18-tetraene-3-carboxylic acid (1-cyano-cyclopropyl)-amide]",168
5,"N#CC1(NC(=O)[C@@H]2Cc3ccc(cc3)OC/C=C/COc3cccc(c3)C(=O)N2)CC1 [Example 2, (E)-(S)-5-Oxo-11,16-dioxa-4-aza-tricyclo[15.2.2.1*6,10*]docosa-1(20),6,8,10(22),13,17(21),18-heptaene-3-carboxylic acid (1-cyano-cyclopropyl)-amide]",230
6,"N#CC1(NC(=O)[C@@H]2Cc3ccc(cc3)OC/C=C/CCc3ccccc3C(=O)N2)CC1 [Example 3, (E)-(S)-5-Oxo-17-oxa-4-aza-tricyclo[16.2.2.0%6,11&]docosa-1(21),6,8,10,14,18(22),19-heptaene-3-carboxylic acid (1-cyano-cyclopropyl)-amide]",77
7,"N#CC1(NC(=O)[C@@H]2Cc3ccc(c(Cl)c3)OC/C=C/COc3ccccc3C(=O)N2)CC1 [Example 4, (E)-(S)-19-Chloro-5-oxo-12,17-dioxa-4-aza-tricyclo[16.2.2.0*6,11*]docosa-1(21),6(11),7,9,14,18(22),19-heptaene-3-carboxylic acid (1-cyano-cyclopropyl)-amide]",13.8
8,"N#CC1(NC(=O)[C@@H]2Cc3ccc(c(Cl)c3)OC/C=C/CCc3ccccc3C(=O)N2)CC1 [Example 5, (E)-(S)-19-Chloro-5-oxo-17-oxa-4-aza-tricyclo[16.2.2.0*6,11*]docosa-1(21),6,8,10,14,18(22),19-heptaene-3-carboxylic acid (1-cyano-cyclopropyl)-amide]",9.6
9,"N#CC1(NC(=O)[C@@H]2Cc3ccc(c(Cl)c3)OC/C=C/COc3cccc(c3)C(=O)N2)CC1 [Example 6, (E)-(S)-18-Chloro-5-oxo-11,16-dioxa-4-aza-tricyclo[15.2.2.1*6,10*]docosa-1(20),6,8,10(22),13,17(21),18-heptaene-3-carboxylic acid (1-cyano-cyclopropyl)-amide]",32
10,"N#CC1(NC(=O)[C@@H]2Cc3ccc(c(Cl)c3)OCCCCOc3ccccc3C(=O)N2)CC1 [Example 7, (S)-19-Chloro-5-oxo-12,17-dioxa-4-aza-tricyclo[16.2.2.0*6,11*]docosa-1(21),6,8,10,18(22),19-hexaene-3-carboxylic acid (1-cyano-cyclopropyl)-amide]",96.2
11,"N#CC1(NC(=O)[C@@H]2Cc3ccc(c(Cl)c3)OC/C=C/COc3ccc(Br)cc3C(=O)N2)CC1 [Example 8, (E)-(S)-8-Bromo-19-chloro-5-oxo-12,17-dioxa-4-aza-tricyclo[16.2.2.0*6,11*]docosa-1(21),6,8,10,14,18(22),19-heptaene-3-carboxylic acid (1-cyano-cyclopropyl)-amide]",24.8
12,"N#CC1(NC(=O)[C@@H]2Cc3ccc(c(Cl)c3)OCCCCOc3ccc(Br)cc3C(=O)N2)CC1 [Example 9, (S)-8-Bromo-19-chloro-5-oxo-12,17-dioxa-4-aza-tricyclo[16.2.2.0%6,11&]docosa-1(21),6,8,10,18(22),19-hexaene-3-carboxylic acid (1-cyano-cyclopropyl)-amide]",10
13,"N#CC1(NC(=O)[C@@H]2Cc3ccc(c(Cl)c3)OC/C=C/COc3ccc(Cl)cc3C(=O)N2)CC1 [Example 10, (E)-(S)-8,19-Dichloro-5-oxo-12,17-dioxa-4-aza-tricyclo[16.2.2.0*6,11*]docosa-1(21),6,8,10,14,18(22),19-heptaene-3-carboxylic acid (1-cyano-cyclopropyl)-amide]",10.3
14,"N#CC1(NC(=O)[C@@H]2Cc3ccc(c(Cl)c3)OCCCCOc3ccc(Cl)cc3C(=O)N2)CC1 [Example 11, (S)-8,19-Dichloro-5-oxo-12,17-dioxa-4-aza-tricyclo[16.2.2.0*6,11*]docosa-1(21),6,8,10,18(22),19-hexaene-3-carboxylic acid (1-cyano-cyclopropyl)-amide]",11.6
15,"COc1ccc2c(c1)C(=O)N[C@H](C(=O)NC1(C#N)CC1)Cc1ccc(c(Cl)c1)OC/C=C/CO2 [Example 16, (E)-(S)-19-Chloro-8-methoxy-5-oxo-12,17-dioxa-4-aza-tricyclo[16.2.2.0*6,11*]docosa-1(21),6,8,10,14,18(22),19-heptaene-3-carboxylic acid (1-cyano-cyclopropyl)-amide]",11.4
16,"COc1ccc2c(c1)C(=O)N[C@H](C(=O)NC1(C#N)CC1)Cc1ccc(c(Cl)c1)OCCCCO2 [Example 17, (S)-19-Chloro-8-methoxy-5-oxo-12,17-dioxa-4-aza-tricyclo[16.2.2.0*6,11*]docosa-1(21),6,8,10,18(22),19-hexaene-3-carboxylic acid (1-cyano-cyclopropyl)-amide]",10.4
17,"N#CC1(NC(=O)[C@@H]2Cc3ccc(c(Cl)c3)OC/C=C/COc3cc(C(F)(F)F)ccc3C(=O)N2)CC1 [Example 20, (E)-(S)-19-Chloro-5-oxo-9-trifluoromethyl-12,17-dioxa-4-aza-tricyclo[16.2.2.0*6,11*]docosa-1(21),6,8,10,14,18(22),19-heptaene-3-carboxylic acid (1-cyano-cyclopropyl)-amide]",47.7
18,"N#CC1(NC(=O)[C@@H]2Cc3ccc(c(Cl)c3)OC/C=C/CNc3ccccc3C(=O)N2)CC1 [Example 21, (E)-(S)-19-Chloro-5-oxo-17-oxa-4,12-diaza-tricyclo[16.2.2.0*6,11*]docosa-1(21),6,8,10,14,18(22),19-heptaene-3-carboxylic acid (1-cyano-cyclopropyl)-amide]",54
19,"COc1ccc2c(c1)CCCCCOc1ccc(cc1Cl)C[C@@H](C(=O)NC1(C#N)CC1)NC2=O [Example 22, (S)-19-Chloro-9-methoxy-5-oxo-17-oxa-4-aza-tricyclo[16.2.2.0*6,11*]docosa-1(21),6,8,10,18(22),19-hexaene-3-carboxylic acid (1-cyano-cyclopropyl)-amide]",118
20,"N#CC1(NC(=O)[C@@H]2Cc3ccc(c(Cl)c3)OCCCCOc3cc(C(F)(F)F)ccc3C(=O)N2)CC1 [Example 23, (S)-19-Chloro-5-oxo-9-trifluoromethyl-12,17-dioxa-4-aza-tricyclo[16.2.2.0*6,11*]docosa-1(21),6,8,10,18(22),19-hexaene-3-carboxylic acid (1-cyano-cyclopropyl)-amide]",50
21,"N#CC1(NC(=O)[C@@H]2Cc3ccc(c(I)c3)OC/C=C/COc3ccccc3C(=O)N2)CC1 [Example 24, (E)-(S)-19-Iodo-5-oxo-12,17-dioxa-4-aza-tricyclo[16.2.2.*6,11*]docosa-1(21),6,8,10,14,18(22),19-heptaene-3-carboxylic acid (1-cyano-cyclopropyl)-amide]",164
22,"N#CC1(NC(=O)[C@@H]2Cc3ccc(c(I)c3)OC/C=C/COc3ccccc3C(=O)N2)CC1 [Example 25, (E)-(S)-19-Iodo-5-oxo-12,17-dioxa-4-aza-tricyclo[16.2.2.0*6,11*]docosa-1(21),6,8,10,14,18(22),19-heptaene-3-carboxylic acid (1-cyano-cyclopropyl)-amide, stereoaxis R]",236
23,"N#CC1(NC(=O)[C@@H]2Cc3ccc(c(I)c3)OC/C=C/COc3ccccc3C(=O)N2)CC1 [Example 26, (E)-(S)-19-Iodo-5-oxo-12,17-dioxa-4-aza-tricyclo[16.2.2.0*6,11*]docosa-1(21),6,8,10,14,18(22),19-heptaene-3-carboxylic acid (1-cyano-cyclopropyl)-amide, stereoaxis S]",139
24,"N#CC1(NC(=O)[C@@H]2Cc3ccc(c(Cl)c3)OC/C=C/COc3cc4c(cc3C(=O)N2)CCCC4)CC1 [Example 27, (3E,12S)-22-chloro-N-(1-cyanocyclopropyl)-14-oxo-2,5,11,12,13,14,16,17,18,19-decahydro-7,10-ethenonaphtho[2,3-b][1,12,5]dioxazacyclohexadecine-12-carboxamide]",16
25,"N#CC1(NC(=O)[C@@H]2Cc3ccc(c(I)c3)OC/C=C/COc3ccc(Cl)cc3C(=O)N2)CC1 [Example 28, (E)-(S)-8-Chloro-19-iodo-5-oxo-12,17-dioxa-4-aza-tricyclo[16.2.2.0*6,11*]docosa-1(21),6,8,10,14,18(22),19-heptaene-3-carboxylic acid (1-cyano-cyclopropyl)-amide]",11
